Data published in patent US8461328B2, “Tricyclic heterocyclic compounds, compositions and methods of use thereof” (Genentech, Inc., priority 2010, dated 2013).

Tests used:
Assay type in all cases: biochemical
[1] = target: T1, JAK3 (Homo sapiens, UniProt P52333); experiment: JAK3 inhibition (Table 4); conditions: read-out: JAK3 Ki
T1 construct: made in house; host or cells: SF9 insect cells (baculovirus)

[2] = target: T2, JAK1 (Homo sapiens, UniProt P23458); experiment: JAK1 inhibition (Table 4); conditions: read-out: JAK1 Ki
T2 construct: made in house; host or cells: SF9 insect cells (baculovirus)
T2 sequence (P23458 852-1154): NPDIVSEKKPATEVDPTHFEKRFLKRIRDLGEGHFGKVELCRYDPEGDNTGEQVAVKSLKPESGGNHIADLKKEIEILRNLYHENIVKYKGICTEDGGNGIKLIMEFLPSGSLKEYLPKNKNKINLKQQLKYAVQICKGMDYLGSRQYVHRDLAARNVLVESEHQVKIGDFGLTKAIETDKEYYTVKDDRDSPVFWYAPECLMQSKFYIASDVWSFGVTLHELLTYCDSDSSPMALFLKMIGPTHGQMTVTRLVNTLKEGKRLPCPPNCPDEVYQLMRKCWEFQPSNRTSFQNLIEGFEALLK

[3] = target: T3, TYK2 (Homo sapiens, UniProt P29597); experiment: TYK2 inhibition (Table 4)
T3 construct: made in house; host or cells: SF9 insect cells (baculovirus)
T3 sequence (P29597 873-1187): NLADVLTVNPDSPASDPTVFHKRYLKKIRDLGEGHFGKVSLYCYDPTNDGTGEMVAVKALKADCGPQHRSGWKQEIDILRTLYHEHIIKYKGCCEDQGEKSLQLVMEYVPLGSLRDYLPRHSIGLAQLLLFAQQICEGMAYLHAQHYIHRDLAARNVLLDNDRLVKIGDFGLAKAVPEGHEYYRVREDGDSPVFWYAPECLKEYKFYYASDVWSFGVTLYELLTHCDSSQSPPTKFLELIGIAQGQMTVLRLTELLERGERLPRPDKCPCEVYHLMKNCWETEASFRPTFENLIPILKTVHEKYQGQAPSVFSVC

[4] = target: T4, JAK2 (Homo sapiens, UniProt O60674); experiment: JAK2 inhibition (Table 4); conditions: read-out: JAK2 Ki
T4 construct: made in house; host or cells: SF9 insect cells (baculovirus)
T4 sequence (O60674 812-1132): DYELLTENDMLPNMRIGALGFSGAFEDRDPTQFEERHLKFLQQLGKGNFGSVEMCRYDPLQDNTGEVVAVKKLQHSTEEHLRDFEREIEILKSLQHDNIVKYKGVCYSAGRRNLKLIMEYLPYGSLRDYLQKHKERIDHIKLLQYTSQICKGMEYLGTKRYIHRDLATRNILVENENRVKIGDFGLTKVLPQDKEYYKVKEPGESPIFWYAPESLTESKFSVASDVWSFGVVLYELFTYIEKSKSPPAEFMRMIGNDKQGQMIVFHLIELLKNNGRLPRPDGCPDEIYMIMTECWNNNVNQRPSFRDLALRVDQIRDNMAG

T1 sequence (P52333 783-1124): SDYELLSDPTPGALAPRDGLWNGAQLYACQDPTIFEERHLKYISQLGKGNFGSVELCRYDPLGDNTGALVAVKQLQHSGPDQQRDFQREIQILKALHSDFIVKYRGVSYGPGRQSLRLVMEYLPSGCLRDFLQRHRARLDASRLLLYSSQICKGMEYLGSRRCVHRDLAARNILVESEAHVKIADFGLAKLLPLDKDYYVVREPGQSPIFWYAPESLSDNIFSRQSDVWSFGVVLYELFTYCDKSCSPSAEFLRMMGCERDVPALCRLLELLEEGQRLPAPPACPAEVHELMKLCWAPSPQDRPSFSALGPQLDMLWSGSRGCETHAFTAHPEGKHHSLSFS

Compound | Ki [1] [µM] | Ki [2] [µM] | Ki [3] [µM] | Ki [4] [µM]
COCC(=O)NC1CCCC(n2cnc3cnc4[nH]ccc4c32)C1 (single isomer, unassigned) [Example 480, 2-Methoxy-N-[3-(6H-1,3,5,6-tetraaza-as-indacen-1-yl)-cyclohexyl]-acetamide] | 0.563 | 0.264 | 1.1 | 0.179
COCC(=O)NC1CCCC(n2cnc3cnc4[nH]ccc4c32)C1 (single isomer, unassigned) [Example 481, 2-Methoxy-N-[3-(6H-1,3,5,6-tetraaza-as-indacen-1-yl)-cyclohexyl]-acetamide] | 0.833 | 0.127 | 0.793 | 0.268
COCC(=O)NC1CCCC(n2cnc3cnc4[nH]ccc4c32)C1 (single isomer, unassigned) [Example 482, 2-Methoxy-N-[3-(6H-1,3,5,6-tetraaza-as-indacen-1-yl)-cyclohexyl]-acetamide] | 0.15 | 0.0558 | 0.845 | 0.0976
OC1CCCC(n2nnc3cnc4[nH]ccc4c32)C1 (single isomer, unassigned) [Example 552, 3-(6H-1,2,3,5,6-Pentaaza-as-indacen-1-yl)-cyclohexanol] | 0.0118 | 0.00659 | 0.0242 | 0.0102
OC1CCCC(n2nnc3cnc4[nH]ccc4c32)C1 (single isomer, unassigned) [Example 553, 3-(6H-1,2,3,5,6-Pentaaza-as-indacen-1-yl)-cyclohexanol] | 0.0425 | 0.00859 | 0.0335 | 0.0204
OC1CCCC(n2nnc3cnc4[nH]ccc4c32)C1 (single isomer, unassigned) [Example 554, 3-(6H-1,2,3,5,6-Pentaaza-as-indacen-1-yl)-cyclohexanol] | 0.0773 | 0.0133 | 0.0606 | 0.0316
OC1CCCC(n2cnc3cnc4[nH]ccc4c32)C1 (single isomer, unassigned) [Example 562, 3-(6H-1,3,5,6-Tetraaza-as-indacen-1-yl)-cyclohexanol] | 0.00589 | 0.00458 | 0.012 | 0.00755
C[C@@H](N)c1nc2cnc3[nH]ccc3c2n1C1CCCOC1 (single isomer, unassigned) [Example 669, 1-[1-(Tetrahydro-pyran-3-yl)-1,6-dihydro-1,2,3,5,6-tetraaza-as-indacen-2-yl]-ethylamine] | 0.823 | 0.137 | 0.681 | 0.913
CCOC(=O)NCCc1nc2cnc3[nH]ccc3c2n1C1CCN(CC)CC1(F)F (single isomer, unassigned) [Example 680, {2-[1-(1-Ethyl-3,3-difluoro-piperidin-4-yl)-1,6-dihydro-1,2,3,5,6-tetraaza-as-indacen-2-yl]-ethyl}-carbamic acid ethyl ester] | 0.0284 | 0.00732 | 0.412 | 0.0563
CCN1CCC(n2c(CCNS(C)(=O)=O)nc3cnc4[nH]ccc4c32)C(F)(F)C1 (single isomer, unassigned) [Example 805, N-{2-[1-(1-Ethyl-3,3-difluoro-piperidin-4-yl)-1,6-dihydro-1,3,5,6-tetraaza-as-indacen-2-yl]-ethyl}-methanesulfonamide] | 0.00901 | 0.0028 | 0.158 | 0.036
CCN1CCC(n2c(CCNS(C)(=O)=O)nc3cnc4[nH]ccc4c32)C(F)(F)C1 (single isomer, unassigned) [Example 806, N-{2-[1-(1-Ethyl-3,3-difluoro-piperidin-4-yl)-1,6-dihydro-1,3,5,6-tetraaza-as-indacen-2-yl]-ethyl}-methanesulfonamide] | 0.0179 | 0.00341 | 0.179 | 0.0213
CC(O)c1nc2cnc3[nH]ccc3c2n1C1CC2CCC1O2 (single isomer, unassigned) [Example 847, endo-1-[1-(7-Oxa-bicyclo[2.2.1]hept-2-yl)-1,6-dihydro-1,3,5,6-tetraaza-as-indacen-2-yl]-ethanol] | 0.381 | 0.105 | 0.279 | 0.53
CS(=O)(=O)NCc1nc2cnc3[nH]ccc3c2n1C1CC2CCC1O2 (single isomer, unassigned) [Example 849, endo-N-[1-(7-Oxa-bicyclo[2.2.1]hept-2-yl)-1,6-dihydro-1,3,5,6-tetraaza-as-indacen-2-ylmethyl]-methanesulfonamide] | 0.592 | 0.0508 | 0.459 | 0.515
CS(=O)(=O)NCc1nc2cnc3[nH]ccc3c2n1C1CC2CCC1O2 (single isomer, unassigned) [Example 850, endo-N-[1-(7-Oxa-bicyclo[2.2.1]hept-2-yl)-1,6-dihydro-1,3,5,6-tetraaza-as-indacen-2-ylmethyl]-methanesulfonamide] | 0.106 | 0.0605 | 0.361 | 0.134
OCc1nc2cnc3[nH]ccc3c2n1C1CC2CCC1O2 (single isomer, unassigned) [Example 851, endo-[1-(7-Oxa-bicyclo[2.2.1]hept-2-yl)-1,6-dihydro-1,3,5,6-tetraaza-as-indacen-2-yl]-methanol] | 0.0244 | 0.0259 | 0.0499 | 0.0533

Results, then the compound that gave them:

Ki [1] [µM] | Ki [2] [µM] | Ki [3] [µM] | Ki [4] [µM] | Compound
0.128 | 0.0135 | 0.0886 | 0.019 | OC1CCCC(n2nnc3cnc4[nH]ccc4c32)C1 (single isomer, unassigned) [Example 551, 3-(6H-1,2,3,5,6-Pentaaza-as-indacen-1-yl)-cyclohexanol]
0.0529 | 0.0103 | 0.0385 | 0.024 | OC1CCCC(n2cnc3cnc4[nH]ccc4c32)C1 (single isomer, unassigned) [Example 559, 3-(6H-1,3,5,6-Tetraaza-as-indacen-1-yl)-cyclohexanol]
0.0375 | 0.00814 | 0.0473 | 0.0132 | OC1CCCC(n2cnc3cnc4[nH]ccc4c32)C1 (single isomer, unassigned) [Example 560, 3-(6H-1,3,5,6-Tetraaza-as-indacen-1-yl)-cyclohexanol]
0.0145 | 0.00729 | 0.0245 | 0.0179 | OC1CCCC(n2cnc3cnc4[nH]ccc4c32)C1 (single isomer, unassigned) [Example 561, 3-(6H-1,3,5,6-Tetraaza-as-indacen-1-yl)-cyclohexanol]
2.62 | 1.02 | 3.24 | 2.94 | c1cc2c(ncc3nc(C4CCCN4)n(C4CCCOC4)c32)[nH]1 (single isomer, unassigned) [Example 668]
0.0277 | 0.00745 | 0.413 | 0.0555 | CCOC(=O)NCCc1nc2cnc3[nH]ccc3c2n1C1CCN(CC)CC1(F)F (single isomer, unassigned) [Example 679, {2-[1-(1-Ethyl-3,3-difluoro-piperidin-4-yl)-1,6-dihydro-1,2,3,5,6-tetraaza-as-indacen-2-yl]-ethyl}-carbamic acid ethyl ester]
0.261 | 0.0906 | 0.749 | 0.369 | CC(O)c1nc2cnc3[nH]ccc3c2n1C1CC2CCC1O2 (single isomer, unassigned) [Example 846, endo-1-[1-(7-Oxa-bicyclo[2.2.1]hept-2-yl)-1,6-dihydro-1,3,5,6-tetraaza-as-indacen-2-yl]-ethanol]
